pIC50: −log10 of the molar value.
Experiments:
PIK3CA = molecular target: T1, PIK3CA (Homo sapiens, UniProt P42336); experiment: In vitro ELISA target engagement assay for PIK3CA in Jurkat cellular lysate (competition with PIK3CA Biotin Probe); type: binding; conditions: 1 hour at rt, then 500 nM PIK3CA Biotin Probe, read-out: Elisa Target Engagement Assay (TE50)
T1 construct: endogenous in cells; host or cells: Jurkat cell lysate
In short: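 Competition format in Jurkat lysate: compound (serial dilutions, top 200 μM) for 1 h at rt, then 500 nM final biotinylated PIK3CA probe for 1 h at rt. Sandwich ELISA with capture antibody and Neutravidin-HRP luminescence read-out measured probe-labelled PIK3CA, giving TE50.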

[1] = system: pAKT(S473) in FaDu cell line; experiment: In vitro Phospho-AKT(S473) HTRF analysis in FaDu cells; type: cell-based; conditions: Homo sapiens, 0.5 h; for pIC50: FaDu cells, 30 minutes at 37° C.; for Emax: FaDu, read-out: FaDu pAKT Imax % control
Method: Example 5. In Vitro Phosgho-AKT(S473) Analysis
Functional activity of the compounds to inhibit pAKT were assessed in FaDu or H358 cell lines as indicated below.
• Complete Media • FBS, Corning catalog #35-010-CV • Anti-Anti, Gibco catalog #15240-062 • 96 well plate, Corning catalog #3610 • TrypLE, Gibco catalog #12604013 • Phospho-AKT(S473) HTRF kit, Cisbio catalog #64AKSPET
Cells were detached from the tissue culture flask with TrypLE. The cells were pelleted at 500×g for 5 min, TrypLe was removed and then resuspended in the necessary volume of media+1% FBS to give the appropriate cell density (17,500 cells/mL for FaDu; 20,000 cells/mL for H358). 100 μL of cell suspension/well was dispensed into the 96-well plate while keeping the outer wells of the plate free of cells and filled with PBS to prevent evaporation of interior wells. The plate was incubated at 37° C. and allowed to adhere overnight. The cells were treated with a dose response of compound and incubated at 37° C. for 30 minutes. The cells were then processed and pAKT(S473) levels were assessed following the specifications of the Cisbio HTRF kit.

T1 sequence (P42336 whole entry): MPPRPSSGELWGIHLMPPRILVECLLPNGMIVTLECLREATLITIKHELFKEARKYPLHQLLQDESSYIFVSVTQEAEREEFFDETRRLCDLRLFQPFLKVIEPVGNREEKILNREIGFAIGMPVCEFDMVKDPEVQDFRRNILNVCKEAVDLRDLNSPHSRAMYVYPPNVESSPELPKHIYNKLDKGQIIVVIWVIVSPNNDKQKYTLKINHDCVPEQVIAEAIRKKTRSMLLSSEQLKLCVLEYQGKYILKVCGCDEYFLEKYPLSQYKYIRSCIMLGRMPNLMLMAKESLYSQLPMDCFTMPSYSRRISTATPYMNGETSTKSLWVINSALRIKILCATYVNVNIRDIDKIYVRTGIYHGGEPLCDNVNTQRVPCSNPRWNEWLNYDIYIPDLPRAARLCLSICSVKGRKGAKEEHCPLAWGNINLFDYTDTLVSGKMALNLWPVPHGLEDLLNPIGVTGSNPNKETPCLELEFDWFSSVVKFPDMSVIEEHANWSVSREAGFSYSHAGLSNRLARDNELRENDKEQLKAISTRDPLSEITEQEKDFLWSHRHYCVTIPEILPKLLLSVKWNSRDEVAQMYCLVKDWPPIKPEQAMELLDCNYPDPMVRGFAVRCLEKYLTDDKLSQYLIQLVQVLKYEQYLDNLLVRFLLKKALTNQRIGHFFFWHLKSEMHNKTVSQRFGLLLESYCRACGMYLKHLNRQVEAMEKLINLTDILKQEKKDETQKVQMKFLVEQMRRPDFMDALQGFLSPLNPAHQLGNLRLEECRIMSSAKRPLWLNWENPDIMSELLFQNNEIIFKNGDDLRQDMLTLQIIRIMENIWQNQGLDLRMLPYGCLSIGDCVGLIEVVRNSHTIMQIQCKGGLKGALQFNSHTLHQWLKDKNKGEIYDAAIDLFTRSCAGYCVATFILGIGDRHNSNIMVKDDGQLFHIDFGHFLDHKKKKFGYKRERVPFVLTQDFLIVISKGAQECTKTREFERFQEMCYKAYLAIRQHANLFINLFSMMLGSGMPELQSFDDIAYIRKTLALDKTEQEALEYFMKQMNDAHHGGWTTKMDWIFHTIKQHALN
T1 sequence (P27986 whole entry partner): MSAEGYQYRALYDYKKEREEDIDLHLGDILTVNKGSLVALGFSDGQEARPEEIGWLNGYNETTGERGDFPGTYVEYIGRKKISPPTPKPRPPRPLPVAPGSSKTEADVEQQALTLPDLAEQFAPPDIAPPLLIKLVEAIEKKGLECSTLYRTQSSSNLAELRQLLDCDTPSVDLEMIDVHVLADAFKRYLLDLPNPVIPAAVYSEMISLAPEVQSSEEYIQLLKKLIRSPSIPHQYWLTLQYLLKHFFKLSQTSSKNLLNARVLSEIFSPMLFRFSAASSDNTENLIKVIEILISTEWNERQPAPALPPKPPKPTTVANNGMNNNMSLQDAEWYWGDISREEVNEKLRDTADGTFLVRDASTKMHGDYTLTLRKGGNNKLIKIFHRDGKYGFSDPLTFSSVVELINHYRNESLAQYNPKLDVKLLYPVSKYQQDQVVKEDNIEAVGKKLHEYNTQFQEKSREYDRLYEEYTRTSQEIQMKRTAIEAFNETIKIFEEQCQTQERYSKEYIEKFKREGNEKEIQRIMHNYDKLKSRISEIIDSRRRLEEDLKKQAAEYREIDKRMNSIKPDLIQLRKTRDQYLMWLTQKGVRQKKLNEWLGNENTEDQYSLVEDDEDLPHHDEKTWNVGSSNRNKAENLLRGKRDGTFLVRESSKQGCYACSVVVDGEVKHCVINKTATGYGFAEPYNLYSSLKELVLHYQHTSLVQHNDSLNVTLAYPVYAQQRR

Structure (SMILES): CC(O)c1ccc(S(=O)(=O)N2CC[C@@](F)(C(=O)N[C@H](C)/C=C/C(=O)N3CC(F)(F)C3)C[C@H]2C)c(-c2ccccc2Cl)c1 (mixture of isomers) [Compound 252, (2R,4S)-1-((2′-chloro-5-((RS)-1-hydroxyethyl)-[1,1′-biphenyl]-2-yl)sulfonyl)-N-((R,E)-5-(3,3-difluoroazetidin-1-yl)-5-oxopent-3-en-2-yl)-4-fluoro-2-methylpiperidine-4-carboxamide]
- pIC50 (PIK3CA): 6.55
- pIC50 [1]: 6.60
- Emax [1]: 85.8%

Structure (SMILES): C[C@H](/C=C\S(C)(=O)=O)NC(=O)[C@@]1(F)CCCN(C(=O)[C@H]2CN(CC(F)(F)F)C[C@H]2c2cc(F)ccc2Cl)CC1 (single isomer, unassigned) [Compound 166, (R)-1-((3*R,4*R)-4-(2-chloro-5-fluorophenyl)-1-(2,2,2-trifluoroethyl)pyrrolidine-3-carbonyl)-4-fluoro-N-((R,Z)-4-(methylsulfonyl)but-3-en-2-yl)azepane-4-carboxamide]
- pIC50 (PIK3CA): 6.52
- pIC50 [1]: 6.73
- Emax [1]: 78.9%

Structure (SMILES): C[C@H](/C=C\S(C)(=O)=O)NC(=O)[C@@]1(F)CCCN(C(=O)[C@H]2CN(CC(F)(F)F)C[C@H]2c2ccc(F)cc2Cl)CC1 (single isomer, unassigned) [Compound 167, (R)-1-((3*R,4*R)-4-(2-chloro-4-fluorophenyl)-1-(2,2,2-trifluoroethyl)pyrrolidine-3-carbonyl)-4-fluoro-N-((R,Z)-4-(methylsulfonyl)but-3-en-2-yl)azepane-4-carboxamide]
- pIC50 (PIK3CA): 6.24
- pIC50 [1]: 6.29
- Emax [1]: 93.6%

Structure (SMILES): C[C@H](/C=C\S(C)(=O)=O)NC(=O)[C@@]1(F)CCCN(C(=O)[C@H]2CN(CC(F)(F)F)C[C@H]2c2cccc(F)c2Cl)CC1 (single isomer, unassigned) [Compound 168, (R)-1-((3*R,4*R)-4-(2-chloro-3-fluorophenyl)-1-(2,2,2-trifluoroethyl)pyrrolidine-3-carbonyl)-4-fluoro-N-((R,Z)-4-(methylsulfonyl)but-3-en-2-yl)azepane-4-carboxamide]
- pIC50 (PIK3CA): 6.67
- pIC50 [1]: 6.87
- Emax [1]: 90.6%

Structure (SMILES): Cc1ccc(Cl)c([C@@H]2CN(CC(F)(F)F)C[C@@H]2C(=O)N2CCC[C@](F)(C(=O)N[C@H](C)/C=C\S(C)(=O)=O)CC2)c1 (single isomer, unassigned) [Compound 170, (R)-1-((3*R,4*R)-4-(2-chloro-5-methylphenyl)-1-(2,2,2-trifluoroethyl)pyrrolidine-3-carbonyl)-4-fluoro-N-((R,Z)-4-(methylsulfonyl)but-3-en-2-yl)azepane-4-carboxamide]
- pIC50 (PIK3CA): 6.12
- pIC50 [1]: 6.32
- Emax [1]: 83.2%

Structure (SMILES): Cc1cccc([C@@H]2CN(CC(F)(F)F)C[C@@H]2C(=O)N2CCC[C@](F)(C(=O)N[C@H](C)/C=C\S(C)(=O)=O)CC2)c1Cl (single isomer, unassigned) [Compound 172, (R)-1-((3*R,4*R)-4-(2-chloro-3-methylphenyl)-1-(2,2,2-trifluoroethyl)pyrrolidine-3-carbonyl)-4-fluoro-N-((R,Z)-4-(methylsulfonyl)but-3-en-2-yl)azepane-4-carboxamide]
- pIC50 (PIK3CA): 6.24
- pIC50 [1]: 6.30
- Emax [1]: 97.9%

Structure (SMILES): C[C@H]1C[C@](F)(C(=O)N[C@@H]2C=CS(=O)(=O)C2)CCN1C(=O)[C@H]1CN(CC(F)(F)F)C[C@H]1c1ccccc1Cl (single isomer, unassigned) [Compound 174, (2*S,4*S)-1-((3R,4R)-4-(2-chlorophenyl)-1-(2,2,2-trifluoroethyl)pyrrolidine-3-carbonyl)-N-((R)-1,1-dioxido-2,3-dihydrothiophen-3-yl)-4-fluoro-2-methylpiperidine-4-carboxamide]
- pIC50 (PIK3CA): 6.56
- pIC50 [1]: 6.77
- Emax [1]: 91.8%

Structure (SMILES): C[C@@H](/C=C\S(C)(=O)=O)NC(=O)C1(F)CCN(S(=O)(=O)c2ccc(Br)cc2-c2ccccc2Cl)CC1 [Compound 62, (S,Z)-1-((5-bromo-2′-chloro-[1,1′-biphenyl]-2-yl)sulfonyl)-4-fluoro-N-(4-(methylsulfonyl)but-3-en-2-yl)piperidine-4-carboxamide]
- pIC50 [1]: 7.56
- Emax [1]: 85.2%
